This note sets out measurements from ChEMBL document CHEMBL6071128, “Chalcone-Monoterpene Derivatives from the Buds of Cleistocalyx operculatus and Their Potential as Protein Tyrosine Phosphatase 1B Inhibitors” (J Nat Prod, 2024).

Assay [1] deals with T1, Tyrosine-protein phosphatase non-receptor type 1 (Homo sapiens, UniProt P18031).
T1 sequence (P18031 whole entry): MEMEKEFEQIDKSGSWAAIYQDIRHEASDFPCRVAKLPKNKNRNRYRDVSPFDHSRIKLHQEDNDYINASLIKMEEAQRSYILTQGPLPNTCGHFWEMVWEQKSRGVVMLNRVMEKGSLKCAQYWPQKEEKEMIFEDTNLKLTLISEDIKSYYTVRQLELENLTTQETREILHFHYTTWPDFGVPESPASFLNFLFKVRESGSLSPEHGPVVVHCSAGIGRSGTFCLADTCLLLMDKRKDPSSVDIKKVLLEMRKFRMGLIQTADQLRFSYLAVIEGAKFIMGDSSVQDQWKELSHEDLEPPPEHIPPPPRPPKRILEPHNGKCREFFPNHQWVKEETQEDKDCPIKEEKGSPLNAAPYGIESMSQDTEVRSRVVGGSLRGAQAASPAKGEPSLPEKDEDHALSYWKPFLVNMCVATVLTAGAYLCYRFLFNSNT
Description: Binding affinity to human recombinant PTP1B (1 to 322 residues) extracted from Escherichia coli assessed as inhibition constant using p-nitrophenyl phosphate as substrate preincubated for 2 mins followed by substrate addition and measured after 15 mins by absorbance based analysis

Assay [2] concerns the target T1, Tyrosine-protein phosphatase non-receptor type 1. The source holds these as a separate data set.
Description: Inhibition of human recombinant PTP1B (1 to 322 residues) extracted from Escherichia coli using p-nitrophenyl phosphate as substrate incubated for 30 mins by absorbance based analysis

`COc1c(C)c(O)c(C=O)c(O)c1C(=O)[C@@H]1CC(CCC=C(C)C)=CC[C@H]1c1ccccc1` had a Ki in assay [1] of 3.4 µM. For the same compound, in assay [2], it took 1.4 µM to reach half-maximal inhibition (IC50).

In the case of `COc1c(C)c(O)c(C=O)c(O)c1C(=O)[C@H]1CC(CCC=C(C)C)=CC[C@@H]1c1ccccc1`, the Ki in assay [1] was 5.9 µM. In assay [2], this compound displayed an IC50 of 1.1 µM. On the same counts, the results for `CC1=C2O[C@]34OC(c5ccccc5)CC(O)=C3C(=O)C(C)(C)C(=O)[C@]4(C)CC2=C(O)C(C(=O)/C=C/c2ccccc2)C1=O` (some centres not stated) are 5.2 µM and 1.5 µM.

Turning to `COc1c(C)c(O)c(C=O)c(O)c1C(=O)/C=C/c1ccccc1`, the IC50 in assay [2] came out at 3.9 µM.

Usually Ki stands for a measure of affinity in units of concentration, obtained from inhibition or displacement. As usually defined, the IC50 is the concentration that inhibits the measured activity by half. A high value points to lower potency.
